Measurements as given in patent US9708628B2, “Cationic lipid having improved intracellular kinetics” (NOF CORPORATION, priority 2011, dated 2017).
Entries after “also recorded” stand apart in the source; their conditions may differ.

Columns and labels:
Assay type in all cases: cell-based
HT1080 cells [1] = test: Inhibitory effect of retinoic acid (RA) on gene expression; conditions: 0, 5, 7.5, 10 μM RA
Protocol: (§1) MENDs of B-2-4 (Example 4), B-2 (Example 1) were prepared according to [Experimental Example 1] (1), (2), [Experimental Example 18]. For the preparation, PEG2000-DMG was used as PEG lipid, and MEND solutions corresponding to 0.55 mM of the lipid concentration were prepared.
HT1080 cells were plated on a 3.5 cm cell culture dish at 4×10^4 cells/2 mL/dish 24 hr before, various MENDs were diluted with DMEM (FBS 10%+, Phenol red free) containing a final concentration 200 μM of D-luciferin potassium and 0, 5, 7.5, 10 μM RA (sigma) to achieve 1.6 μg/2 mL/dish based on the pDNA amount and transfection was performed. According to the Kronos Dio package insert, the luminescence amount was measured for 2 min every 20 min and taken as the luciferase activity (RLU/2 min).

HT1080 cells [2] = test: Time-course of intracellular uptake amount of MEND (Cy5-labeled pDNA, FACS); conditions: pDNA 1.6 μg/2 mL/well; 1, 3, 6 hr
Protocol: MENDs of B-2-4 (Example 4), B-2 (Example 1) were prepared according to [Experimental Example 1] (1), (2), [Experimental Example 15]. For the preparation, PEG2000-DMG was used as PEG lipid, and MEND solutions corresponding to 0.55 mM of the lipid concentration were prepared. For cationic MEND, lipids having a composition of DOTAP (Comparative Example 3):DOPE:Chol:=3:4:3 were used, and the cationic MEND was prepared according to the method described in [Experimental Example 1] (3). pDNA was labeled with fluorescence according to the method described in [Experimental Example 15] (2).
HT1080 cells were plated on a 6-well plate at 2×10^5 cells/2 mL/well 24 hr before, various sample MENDs were diluted with DMEM (FBS+) to a pDNA concentration of 1.6 μg/2 mL/well and transfected into the well. After 1, 3, 6 hr, MEND-containing DMEM was removed, and the cells were washed twice with heparin (20 units/mL, 1 mL), and further once with PBS(−) (1 mL). 0.05% Trypsin solution (500 μL) was added, and the cells were stood in an incubator at 37° C. for 3 min. DMEM (FBS+) (1 mL) was added and the mixture was centrifuged (700 g, 4° C., 5 min). The supernatant was removed and the cells were suspended in FACS buffer (1 mL). […] The suspension was passed through a 44 μm nylon mesh immediately before the measurement, and the fluorescence intensity of intracellular Cy5 was measured.

HT1080 cells [3] = test: Decapsulation efficiency over time (3, 6, 9, 12 hr); conditions: 3, 6, 9, 12 hr after transfection
From the text: For MEND preparation, Rhodamine-labeled pDNA prepared by the method of [Experimental Example 1] (4) was used. For preparation of MEND encapsulating the rhodamine-labeled pDNA, 50% of the pDNA solution described in [Experimental Example 1] (1) was replaced by the rhodamine-labeled pDNA. In addition, the lipid constituting the MEND was labeled with fluorescence by the method described in [Experimental Example 1] (3). MENDs having a composition of B-2-4 […]:DOPE:Chol=3:3:4, B-2 […]:SOPE:Chol=5:3:2 were prepared by the method described in [Experimental Example 1] (2). For the preparation, PEG2000-DMG was used as PEG lipid, and MEND solutions corresponding to 0.55 mM of the lipid concentration were prepared.
HT1080 cells were plated on a glass bottom dish at 5×10^4 cells/2 mL/dish 24 hr before. MEND was diluted with DMEM (FBS 10%+) to achieve pDNA 1.6 μg/2 mL and transfected into cells. 3, 6, 9, 12 hr later, the cells were washed twice with heparin solution (20 units/mL, 2 mL), Krebs buffer (1 mL) was added, and the images at 3, 6, 9, 12 hr after the transfection were obtained by a confocal laser scan microscope.
Rhodamine-labeled pDNA and lipid membrane of MEND were shown in pseudo colors of red and green, respectively. The decapsulation efficiency was calculated according to the following formula.

HT1080 cells [4] = test: Intracellular uptake pathway: influence of sucrose, amiloride, filipin on uptake amount; conditions: 0.3M sucrose, 1 mM amiloride, 3 hr
Protocol: as §1, with “prepared. pDNA was labeled with fluorescence according to the method described in [Experimental Example 15] (2).” for “prepared.”
HT1080 cells were plated on a 6-well plate at 2×10^5 cells/2 mL/well 24 hr before. The medium was changed to DMEM (FBS+) containing filipin at a final concentration of […] 30 min before transfection. The medium was changed to DMEM (FBS+) containing a final concentration of 0.3M sucrose, and 1 mM amiloride 15 min before transfection. For transfection, various MENDs were added to the dish at 1.6 μg/2 mL/dish based on the pDNA amount. 3 hr after the transfection, the intracellular pDNA amount was measured by the method described in [Experimental Example 19] (1).

| SMILES | gene expression activity in presence of RA (HT1080 cells [1]) | intracellular uptake amount (Cy5-labeled pDNA) (HT1080 cells [2]) | decapsulation efficiency (HT1080 cells [3]) | intracellular uptake with sucrose, amiloride, filipin (HT1080 cells [4]) |
| --- | --- | --- | --- | --- |
| CC1=C(/C=C/C(C)=C/C=C/C(C)=C/C(=O)OCCCN(C)CCSSCCN(C)CCCOC(=O)/C=C(C)/C=C/C=C(C)/C=C/C2=C(C)CCCC2(C)C)C(C)(C)CCC1 [Example B-2-4] | decreased by RA in a concentration dependent manner | low as compared to the MENDs using DOTAP; also recorded: more highly uptaken than B-2 | gradual decapsulation with the passage of time | sucrose- and amiloride-sensitive |
| CCCCCCCCCCCCCC(=O)OCCCN(C)CCSSCCN(C)CCCOC(=O)CCCCCCCCCCCCC [Example B-2] | not decreased | low as compared to the MENDs using DOTAP | good decapsulation from early stages | sucrose- and amiloride-sensitive |
